Measurements published in US12195427B2, “MASP-2 inhibitors and methods of use” (priority 2018, dated 2025).

Target: MASP-2 CCP2-SP (Homo sapiens (Human), UniProt O00187)
Assay: MASP-2 co-crystallization, X-ray crystallography and structure analysis (H-bonds, van der Waals contacts);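 for Ligand-pharmacophore element distance, pharmacophore element C2: distance from averaged pharmacophore element to bound ligand; missing value means element absent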;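 for Ligand-pharmacophore element distance, pharmacophore element C3: distance from averaged pharmacophore element to bound ligand; missing value means element absent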;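 for Ligand-pharmacophore element distance, pharmacophore element C4: distance from averaged pharmacophore element to bound ligand; missing value means element absent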;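 for Ligand-pharmacophore element distance, pharmacophore element C5: distance from averaged pharmacophore element to bound ligand; missing value means element absent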
Design: van der Waals contact distance, MASP-2 HIS 483 atom CD2 / van der Waals contact distance, MASP-2 HIS 483 atom NE2 / van der Waals contact distance, SER 654 C to compound atom / van der Waals contact distance, SER 654 O to compound atom / van der Waals contact distance, TRP 655 C to compound atom / van der Waals contact distance, MASP-2 GLY 528 atom CA / van der Waals contact distance TRP 655 atom CZ3 / van der Waals contact distance TRP 655 atom N / van der Waals contact distance TRP 655 atom CE3 / van der Waals contact distance GLY 656 atom C / van der Waals contact distance GLY 656 atom CA / van der Waals contact distance GLY 656 atom O / van der Waals contact distance, MASP-2 TYR 607 atom CD1 / van der Waals contact distance, MASP-2 PRO 606 atom O / d(C3,CA1) / d(CA1,N1)2 / d(H4,O1) / d(H4,O2) / d(O1,O2) / d(CA1,O2) / d(CA6,O1) / d(CA6,O2) / d(CA1,C5) / d(O2,H3) / d(N2,C2) / d(CA5,N2) / d(N2,C4) / d(N2,C6) / d(N2,CA3) / d(N2,O3) / d(O4,H2): unit not given beside the values
Source text: This example illustrates the preparation of recombinant MASP-2 protein, based on UniProt O00187, human mannan-binding lectin serine protease 2. Expression constructs for human MASP-2 CCP2-SP and CCP2-SP-6HIS were generated for recombinant expression in E. coli cells.
Typically, crystallization hits were obtained by screening against […] 96-well crystallization reagent kits (GRAS6, GRAS2, Hampton Research; MORPHEUS, Molecular Dimensions; Wizard 1&2 Cryo, Rigaku Reagents) and crystal growth was inspected by optical microscopy. Crystals were used directly or further optimized for X-ray diffraction. Crystals were captured with cryogenic loops and dipped into liquid nitrogen directly or cryoprotected with a 20% glycerol in crystallization formulation before flash-cooling in liquid nitrogen.
Thereafter crystals are transferred once or twice for soaking within the crystallization solution containing the MASP-2 inhibitor.
Crystals were diffracted with synchrotron X-rays of […] and X-ray diffraction datasets were collected at beamlines SSRL BL9-2, BL14-1, BL12-2 as well as ALS sector 5 using Dectris Pilatus and Eiger detectors. Structures were determined by molecular replacement using portions of the structure 1Q3X as search models and partially refined with Buster 2.10.2 or Refmac 5.8. […] When multiple ligand poses were observed, for instance arising from multiple molecules in the asymmetric unit or refined dual poses within the same molecule, only one pose was selected and analyzed.
LigPlot+ calls these ‘nonbonded contacts’ or ‘hydrophobic contacts’. Despite the name, there are atom pairings that include possible H-bonds. Thus, in some instances, the Table A2 also contains H-bond interactions.

[1] = Table A5-1 pharmacophore: distance between elements, S2/S1 region
[2] = Table A5-2 pharmacophore distance, S3/S4 region
[3] = Table A7-1, between pharmacophore elements of the bound compound
[4] = Table A8-6, nearest protein atom in cell to the left

MASP-2 CCP2-SP, sequence (O00187 445-686): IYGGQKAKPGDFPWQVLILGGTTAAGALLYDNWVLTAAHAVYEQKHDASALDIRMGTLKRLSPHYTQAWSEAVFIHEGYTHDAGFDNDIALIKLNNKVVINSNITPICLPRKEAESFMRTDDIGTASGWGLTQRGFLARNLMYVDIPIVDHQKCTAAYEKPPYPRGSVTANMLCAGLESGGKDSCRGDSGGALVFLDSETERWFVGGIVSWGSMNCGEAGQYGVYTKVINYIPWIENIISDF
MASP-2 CCP2-SP, sequence (O00187 364-432 partner): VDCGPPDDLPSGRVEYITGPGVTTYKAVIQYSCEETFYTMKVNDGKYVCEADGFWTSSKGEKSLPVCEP

H-bond distance to MASP-2 GLY 656 atom N (Table A1 (H-Bonds), GLY 656 N): 3.25
H-bond distance to MASP-2 SER 628 atom O (Table A1 (H-Bonds), SER 628 O): 2.93
H-bond distance to MASP-2 SER 654 atom O (Table A1 (H-Bonds), SER 654 O): 2.94
H-bond distance to MASP-2 SER 657 atom O (Table A1 (H-Bonds), SER 657 O): 2.83
van der Waals contact distance, MASP-2 PHE 529 atom CD1 (Table A2-3): 3.71
van der Waals contact distance, MASP-2 amino acid atom to compound atom (Table A2-5: TYR 607 (CE1, CE2, OH), PRO 608 (CD, CG), SER 611 (CA)): 3.85
van der Waals contact distance GLY 656 atom C (Table A2-13, MASP-2 GLY 656 C): 3.36
van der Waals contact distance TRP 655 atom O (Table A2-13, MASP-2 TRP 655 O): 3.84
van der Waals contact distance SER 657 atom C (Table A2-14, MASP-2 SER 657 C, columns c12-c13 (inferred)): 3.75
Ligand-pharmacophore element distance, pharmacophore element C2 (Table A4-1, element C2): 0.48
Ligand-pharmacophore element distance, pharmacophore element C3 (Table A4-1, element C3): 0
Ligand-pharmacophore element distance, pharmacophore element C4 (Table A4-1, element C4): 0
Ligand-pharmacophore element distance, pharmacophore element C5 (Table A4-1, element C5): 0
Ligand-pharmacophore element distance, pharmacophore element C6 (Table A4-1, element C6): 0
Ligand-pharmacophore element distance, pharmacophore element C7 (Table A4-1, element C7): 0
Ligand-pharmacophore element distance, pharmacophore element CA1 (Table A4-1, element CA1): 0.3
Ligand-pharmacophore element distance, pharmacophore element CA2 (Table A4-1, element CA2): 0.85
Ligand-pharmacophore element distance, pharmacophore element CA3 (Table A4-1, element CA3): 0
Ligand-pharmacophore element distance, pharmacophore element CA4 (Table A4-1, element CA4): 0
Ligand-pharmacophore element distance, pharmacophore element CA5 (Table A4-1, element CA5): 0
Ligand-pharmacophore element distance, pharmacophore element CA6 (Table A4-1, element CA6): 0
d(CA1,N1) [1]: 3.56
d(CA1,O1) [1]: 4.95
d(CA1,O2) [1]: 3.58
d(H4,O1) [1]: 5.37
d(H4,O2) [1]: 3.82
d(O1,O2) [1]: 3.31
d(N2,C2) [2]: 1.38
d(N2,CA2) [2]: 5.62
d(O2,H3) [2]: 4.92
d(O2,N2) [2]: 3.36
a(CA1, O1, O2) (Table A6-1 pharmacophore angle): 88.32
a(O1, O2, H4) (Table A6-1 pharmacophore angle): 142.43
A(N1, CA1, O1) a) (Table A6-1 pharmacophore angle, all compounds with protonatable center N1 except Methyl-amino-pyridine): 167.99
a(O1, O2, H3) (Table A6-2 pharmacophore angle): 157.64
a(O1, O2, N2) (Table A6-2 pharmacophore angle): 139.49
a(O2, N2, C2) (Table A6-2 pharmacophore angle): 118.75
a(O2, N2, CA2) (Table A6-2 pharmacophore angle): 154.05
Pharmacophore torsion angle a(H4, O1, O2, H3) [3]: 54.13
Pharmacophore torsion angle a(H4, O1, O2, N2) [3]: 155.02
Pharmacophore torsion angle a(N1, CA1, O2, H4) [3]: −130.71
Pharmacophore torsion angle a(O1, H4, O2, CA1) [3]: −74.94
Pharmacophore torsion angle a(O1, O2, N2, C2) [3]: 150.29
Pharmacophore protein distance to MET_658 (first MET_658 column) (Table A8-6, 6th residue column, nearest protein atom in cell to the left): 1.74
Pharmacophore protein distance to MET_658 (second MET_658 column) (Table A8-6, 9th residue column, nearest protein atom in cell to the left): 2.75
Pharmacophore protein distance to GLY_528 [4]: 3.37
Pharmacophore protein distance to PHE_529 [4]: 3.00
Pharmacophore protein distance to PRO_608 [4]: 4.92
Pharmacophore protein distance to SER_611 [4]: 3.00
Pharmacophore protein distance to TRP_655 (Table A8-6, pharmacophore elements C6, CA3, O3, H1, nearest protein atom in cell to the left): 3.73
Structure (SMILES): C[C@H](NC(=O)C1C[C@@H](c2ccccc2)CCN1)C(=O)NCc1ccc(C(=N)N)cc1 (stereo in doubt) [compound 1063]
